In patent US7642245B2, “Antibacterial compounds having a (pyrrole carboxamide)-(benzamide)-(imidazole carboxamide) motif” (Oscient Pharmaceuticals Corporation, priority 2002, dated 2010):

What was measured:
[1] = tested on: E. faecalis ATCC 29212; experiment: MIC, NCCLS broth microdilution; assay type: cell-based, Enterococcus faecalis; conditions: C = E. faecalis ATCC 29212
Summary of the method: (§1)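 Broth microdilution MIC per NCCLS M7-A4 and M11-A4 for bacteria (MRSA strain for S. aureus ATCC 27660); antifungal MIC per NCCLS M27-T with the Murray 1995 Manual of Clinical Microbiology method. MIC taken as lowest inhibitory concentration.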

[2] = tested on: B. cereus ATCC 11778; experiment: MIC, NCCLS broth microdilution; assay type: cell-based, Bacillus cereus; conditions: D = B. cereus ATCC 11778
Summary of the method: (§2)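 Broth microdilution, NCCLS M7-A4/M11-A4/M27-T guidelines; read-out MIC. MRSA strain for S. aureus. Candida: Manual of Clinical Microbiology method.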

[3] = tested on: S. aureus ATCC 27660; experiment: MIC, NCCLS broth microdilution; assay type: cell-based, Staphylococcus aureus; conditions: B = S. aureus ATCC 27660 (MRSA)
Summary of the method: as §2

[4] = tested on: S. aureus ATCC 13709; experiment: MIC, NCCLS broth microdilution; assay type: cell-based, Staphylococcus aureus; conditions: A = S. aureus ATCC 13709 (MSSA)
Summary of the method: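 Compounds were serially diluted in broth and tested against each strain according to NCCLS guidelines, with MIC taken as the endpoint. C. albicans was assayed per the Manual of Clinical Microbiology.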

[5] = tested on: E. coli ATCC 25922; experiment: MIC, NCCLS broth microdilution; assay type: cell-based, Escherichia coli; conditions: G = E. coli ATCC 25922
Summary of the method: as §1

[6] = tested on: C. albicans ATCC 38247; experiment: MIC, antifungal assay; assay type: cell-based, Candida albicans; conditions: F = C. albicans ATCC 38247
Summary of the method: as §2

[7] = tested on: S. pneumoniae ATCC 49619; experiment: MIC, NCCLS broth microdilution; assay type: cell-based, Streptococcus pneumoniae; conditions: E = S. pneumoniae ATCC 49619
Summary of the method: as §1

[8] = tested on: M. catarrhalis (ATCC 25238); experiment: MIC, NCCLS broth microdilution; assay type: cell-based, Moraxella (now Branhamella) catarrhalis; conditions: H = M. catarrhalis (ATCC 25238)
Summary of the method: as §2

Minimum Inhibitory Concentration (MIC) [1]	Minimum Inhibitory Concentration (MIC) [2]	Minimum Inhibitory Concentration (MIC) [3]	Minimum Inhibitory Concentration (MIC) [4]	Minimum Inhibitory Concentration (MIC) [5]	Minimum Inhibitory Concentration (MIC) [6]	Minimum Inhibitory Concentration (MIC) [7]	Minimum Inhibitory Concentration (MIC) [8]	Structure (SMILES)
+++ (MIC ≦ 4 μg/mL)	+++ (MIC ≦ 4 μg/mL)	+++ (MIC ≦ 4 μg/mL)	+++ (MIC ≦ 4 μg/mL)	+++ (MIC ≦ 4 μg/mL)	>32 µg/mL	+++ (MIC ≦ 4 μg/mL)	+++ (MIC ≦ 4 μg/mL)	Cn1cc(NC(=O)c2cc3ccccc3cn2)cc1C(=O)Nc1ccc(C(=O)Nc2cn(C)c(C(=O)NCCN3CCC(O)C3)n2)cc1 (racemic) [Compound A-71]
+++ (MIC ≦ 4 μg/mL)	+++ (MIC ≦ 4 μg/mL)	+++ (MIC ≦ 4 μg/mL)	+++ (MIC ≦ 4 μg/mL)	>32 µg/mL	>32 µg/mL	+++ (MIC ≦ 4 μg/mL)	>32 µg/mL	Cn1cc(NC(=O)c2cc3ccccc3cn2)cc1C(=O)Nc1ccc(C(=O)Nc2cn(C)c(C(=O)NCCN3CCN(C(=O)C4OC(O)C(O)C(O)C4O)CC3)n2)cc1 (stereo not drawn) [Compound A-75]
+++ (MIC ≦ 4 μg/mL)	+++ (MIC ≦ 4 μg/mL)	+++ (MIC ≦ 4 μg/mL)	+++ (MIC ≦ 4 μg/mL)	+++ (MIC ≦ 4 μg/mL)	>32 µg/mL	+++ (MIC ≦ 4 μg/mL)	+++ (MIC ≦ 4 μg/mL)	CC(O)CN1CCN(CCNC(=O)c2nc(NC(=O)c3ccc(NC(=O)c4cc(NC(=O)c5cc6ccccc6cn5)cn4C)cc3)cn2C)CC1 (stereo not drawn) [Compound A-63]
+++ (MIC ≦ 4 μg/mL)	+++ (MIC ≦ 4 μg/mL)	+++ (MIC ≦ 4 μg/mL)	+++ (MIC ≦ 4 μg/mL)	>32 µg/mL	>32 µg/mL	+++ (MIC ≦ 4 μg/mL)	+ (12 ≦ MIC ≦ 32 μg/mL)	Cn1cc(NC(=O)c2cc3ccccc3cn2)cc1C(=O)Nc1ccc(C(=O)Nc2cn(C)c(C(=O)NCCN3CCN(C(=O)OC(C)(C)C)CC3)n2)cc1 [Compound A-55]
+++ (MIC ≦ 4 μg/mL)	+++ (MIC ≦ 4 μg/mL)	+++ (MIC ≦ 4 μg/mL)	+++ (MIC ≦ 4 μg/mL)	>32 µg/mL	>32 µg/mL	+++ (MIC ≦ 4 μg/mL)	+++ (MIC ≦ 4 μg/mL)	Cn1cc(NC(=O)c2cc3ccccc3cn2)cc1C(=O)Nc1ccc(C(=O)Nc2cn(C)c(C(=O)NCCN3CCCC(O)C3)n2)cc1 (racemic) [Compound A-69]

The remaining lines, values behind:

Structure (SMILES)	Minimum Inhibitory Concentration (MIC) [1]	Minimum Inhibitory Concentration (MIC) [2]	Minimum Inhibitory Concentration (MIC) [3]	Minimum Inhibitory Concentration (MIC) [4]	Minimum Inhibitory Concentration (MIC) [5]	Minimum Inhibitory Concentration (MIC) [6]	Minimum Inhibitory Concentration (MIC) [7]	Minimum Inhibitory Concentration (MIC) [8]
Cn1cc(NC(=O)c2ccc(Cl)cc2F)cc1C(=O)Nc1ccc(C(=O)Nc2cn(C)c(C(=O)NCCN3CCC(O)CC3)n2)cc1 [Compound A-4]	+++ (MIC ≦ 4 μg/mL)	+++ (MIC ≦ 4 μg/mL)	+++ (MIC ≦ 4 μg/mL)	+++ (MIC ≦ 4 μg/mL)	++ (4 < MIC < 12 μg/mL)	+ (12 ≦ MIC ≦ 32 μg/mL)	+++ (MIC ≦ 4 μg/mL)	+++ (MIC ≦ 4 μg/mL)
CCN(CCO)CCNC(=O)c1nc(NC(=O)c2ccc(NC(=O)c3cc(NC(=O)c4cc5ccccc5cn4)cn3C)cc2)cn1C [Compound A-32]	+++ (MIC ≦ 4 μg/mL)	+++ (MIC ≦ 4 μg/mL)	+++ (MIC ≦ 4 μg/mL)	+++ (MIC ≦ 4 μg/mL)	>32 µg/mL	>32 µg/mL	+++ (MIC ≦ 4 μg/mL)	+++ (MIC ≦ 4 μg/mL)
Cn1cc(NC(=O)c2cc3ccccc3cn2)cc1C(=O)Nc1ccc(C(=O)Nc2cn(C)c(C(=O)NCCN3CCCCC3CN3CCCC3)n2)cc1 (stereo not drawn) [Compound A-40]	+++ (MIC ≦ 4 μg/mL)	+++ (MIC ≦ 4 μg/mL)	+++ (MIC ≦ 4 μg/mL)	+++ (MIC ≦ 4 μg/mL)	>32 µg/mL	>32 µg/mL	+++ (MIC ≦ 4 μg/mL)	++ (4 < MIC < 12 μg/mL)
COC1CCN(CCNC(=O)c2nc(NC(=O)c3ccc(NC(=O)c4cc(NC(=O)c5cc6ccccc6cn5)cn4C)cc3)cn2C)CC1 [Compound A-20]	+++ (MIC ≦ 4 μg/mL)	+++ (MIC ≦ 4 μg/mL)	+++ (MIC ≦ 4 μg/mL)	+++ (MIC ≦ 4 μg/mL)	+++ (MIC ≦ 4 μg/mL)	+ (12 ≦ MIC ≦ 32 μg/mL)	+++ (MIC ≦ 4 μg/mL)	+++ (MIC ≦ 4 μg/mL)
CCCNCCNC(=O)c1nc(NC(=O)c2ccc(NC(=O)c3cc(NC(=O)c4cc5ccccc5cn4)cn3C)cc2)cn1C [Compound A-37]	+++ (MIC ≦ 4 μg/mL)	+++ (MIC ≦ 4 μg/mL)	+++ (MIC ≦ 4 μg/mL)	+++ (MIC ≦ 4 μg/mL)	+++ (MIC ≦ 4 μg/mL)	>32 µg/mL	+++ (MIC ≦ 4 μg/mL)	+++ (MIC ≦ 4 μg/mL)
Cn1cc(NC(=O)c2sc3ccccc3c2Cl)cc1C(=O)Nc1ccc(C(=O)Nc2cn(C)c(C(=O)NCCN3CCC(O)CC3)n2)cc1 [Compound A-3]	+++ (MIC ≦ 4 μg/mL)	+++ (MIC ≦ 4 μg/mL)	+++ (MIC ≦ 4 μg/mL)	+++ (MIC ≦ 4 μg/mL)	>32 µg/mL	>32 µg/mL	+++ (MIC ≦ 4 μg/mL)	++ (4 < MIC < 12 μg/mL)
Cn1cc(NC(=O)c2cc3ccccc3cn2)cc1C(=O)Nc1ccc(C(=O)Nc2cn(C)c(C(=O)NCCN(CCO)CCO)n2)cc1 [Compound A-54]	+++ (MIC ≦ 4 μg/mL)	+++ (MIC ≦ 4 μg/mL)	+++ (MIC ≦ 4 μg/mL)	+++ (MIC ≦ 4 μg/mL)	>32 µg/mL	>32 µg/mL	+++ (MIC ≦ 4 μg/mL)	>32 µg/mL
Cn1cc(NC(=O)c2cc3ccccc3cn2)cc1C(=O)Nc1ccc(C(=O)Nc2cn(C)c(C(=O)NCCN3CCC(O)CC3)n2)cc1 [Compound A-19]	+++ (MIC ≦ 4 μg/mL)	+++ (MIC ≦ 4 μg/mL)	+++ (MIC ≦ 4 μg/mL)	+++ (MIC ≦ 4 μg/mL)	+ (12 ≦ MIC ≦ 32 μg/mL)	>32 µg/mL	+++ (MIC ≦ 4 μg/mL)	+++ (MIC ≦ 4 μg/mL)
Cn1cc(NC(=O)c2cc3ccccc3cn2)cc1C(=O)Nc1ccc(C(=O)Nc2cn(C)c(C(=O)NCCNCCOCCOCCN)n2)cc1 [Compound A-42]	+++ (MIC ≦ 4 μg/mL)	++ (4 < MIC < 12 μg/mL)	+++ (MIC ≦ 4 μg/mL)	+++ (MIC ≦ 4 μg/mL)	>32 µg/mL	+ (12 ≦ MIC ≦ 32 μg/mL)	+ (12 ≦ MIC ≦ 32 μg/mL)	>32 µg/mL
CN1CCN(CCNC(=O)c2nc(NC(=O)c3ccc(NC(=O)c4cc(NC(=O)c5cc6ccccc6cn5)cn4C)cc3)cn2C)CC1 [Compound A-12]	+++ (MIC ≦ 4 μg/mL)	+++ (MIC ≦ 4 μg/mL)	+++ (MIC ≦ 4 μg/mL)	+++ (MIC ≦ 4 μg/mL)	>32 µg/mL	>32 µg/mL	+++ (MIC ≦ 4 μg/mL)	+++ (MIC ≦ 4 μg/mL)
